From patent EP0217101A1, “Substituted diphenyl ethers, process for their preparation and their use as herbicides” (HOECHST AKTIENGESELLSCHAFT, priority 1985, dated 1987)

How the values were obtained:
Type in all cases: in vivo
Sinapis arvensis [1] = experiment: Weed control pre-emergence (greenhouse pot test); settings: pre-emergence, 2,5 kg a.i./ha, visual rating after 3-4 weeks
From the text: (§1) Die Schädigung der Unkrautpflanzen bzw. die Kulturpflanzenverträglichkeit wurde gemäß einem Schlüssel bonitiert, in dem die Wirksamkeit durch Wertzahlen von 0 - 5 ausgedrückt ist. Dabei bedeutet:
(§2) Samen bzw. Rhizomstücke von mono- und dikotylen Unkrautpflanzen wurden in Plasstiktöpfen (0 = 9 cm) in sandiger Lehmerde ausgelegt und mit Erde abgedeckt. Die in Form von benetzbaren Pulvern oder Emulsionskonzentraten formulierten erfindungsgemäßen Verbindungen wurden dann als wäßrige Suspensionen bzw. Emulsionen mit einer Wasseraufwandmenge von umgerechnet 600-800 1/ha in unterschiedlichen Dosierungen auf die Oberfläche der Abdeckerde appliziert. Nach der Behandlung wurden die Töpfe im Gewächshaus aufgestellt und unter guten Wachstumsbedingungen für die Unkrautpflanzen gehalten (Temperatur 23 plus/minus 1 Grad Celsius, relative Luftfeuchte 60-80 %).
(§3) Die optische Bonitur der Pflanzen- bzw. Auflaufschäden erfolgte nach dem Auflaufen der Versuchspflanzen nach einer Versuchszeit von 3-4 Wochen im Vergleich zu unbehandelten Kontrollen.

Avena sativa [2] = experiment: Weed control pre-emergence (greenhouse pot test); settings: pre-emergence, 2,5 kg a.i./ha, visual rating after 3-4 weeks
From the text: as §1, §2, §3

Chrysanthemum segetum [3] = experiment: Weed control pre-emergence (greenhouse pot test); settings: pre-emergence, 2,5 kg a.i./ha, visual rating after 3-4 weeks
From the text: as §1, §2, §3

Sinapis arvensis [4] = experiment: Weed control post-emergence (greenhouse pot test); settings: post-emergence (three-leaf stage), 2,5 kg a.i./ha, visual rating after ca. 3-4 weeks
From the text: as §1
(§4) Samen bzw. Rhizomstüeke von mono- und dikotylen Unkräutern wurden in Plasstiktöpfen (φ= 9 cm) in sandigem Lehmboden ausgelegt, mit Erde abgedeckt und im Gewächshaus unter guten Wachstumsbedingungen angezogen. Drei Wochen nach der Aussaat wurden die Versuchspflanzen im Dreiblattstadium behandelt. Die als Spritzpulver bzw. als Eτulsionskonzentrate formulierten erfindungsgemäßen Verbindungen wurden in verschiedenen Dosierungen mit einer Wasseraufwandmenge von umgerechnet 600-800 l/ha auf die grünen Pflanzenteile gesprüht und nach ca. 3-4 Wochen Standzeit der Versuchspflanzen im Gewächshaus unter optimalen Wachstumsbedingungen (Temperatur 23°C +/- 1°C, relative Luftfeuchte 60-80 %) die Wirkung der Präparate optisch im Vergleich zu unbehandelten Kontrollen bonitiert.

Avena sativa [5] = experiment: Weed control post-emergence (greenhouse pot test); settings: post-emergence (three-leaf stage), 2,5 kg a.i./ha, visual rating after ca. 3-4 weeks
From the text: as §1, §4

Chrysanthemum segetum [6] = experiment: Weed control post-emergence (greenhouse pot test); settings: post-emergence (three-leaf stage), 2,5 kg a.i./ha, visual rating after ca. 3-4 weeks
From the text: as §1, §4

Stellaria media [7] = experiment: Weed control post-emergence (greenhouse pot test); design: key: 0: = ohne Wirkung bzw. Schaden; 1: = 0 - 20 % Wirkung bzw. Schaden; = 20 - 40 % Wirkung bzw. Schaden; 3: = 40 - 60 % Wirkung bzw. Schaden; 4: = 60 - 80 % Wirkung bzw. Schaden; 5: = 80 - 100 % Wirkung bzw. Schaden; settings: post-emergence (three-leaf stage), 2,5 kg a.i./ha, visual rating after ca. 3-4 weeks
From the text: as §1, §4

Echinochloa crus-galli [8] = experiment: Weed control post-emergence (greenhouse pot test); design: key: 0: = ohne Wirkung bzw. Schaden; 1: = 0 - 20 % Wirkung bzw. Schaden; = 20 - 40 % Wirkung bzw. Schaden; 3: = 40 - 60 % Wirkung bzw. Schaden; 4: = 60 - 80 % Wirkung bzw. Schaden; 5: = 80 - 100 % Wirkung bzw. Schaden; settings: post-emergence (three-leaf stage), 2,5 kg a.i./ha, visual rating after ca. 3-4 weeks
From the text: as §1, §4

Stellaria media [9] = experiment: Weed control pre-emergence (greenhouse pot test); settings: pre-emergence, 2,5 kg a.i./ha, visual rating after 3-4 weeks
From the text: as §1, §2, §3

Echinochloa crus-galli [10] = experiment: Weed control pre-emergence (greenhouse pot test); settings: pre-emergence, 2,5 kg a.i./ha, visual rating after 3-4 weeks
From the text: as §1, §2, §3

SMILES | Herbizide Wirkung im Vorauflauf SIA (Sinapis arvensis [1]) | Herbizide Wirkung im Vorauflauf AS (Avena sativa [2]) | Herbizide Wirkung im Vorauflauf CRS (Chrysanthemum segetum [3]) | Herbizide Wirkung im Nachauflauf SIA (Sinapis arvensis [4]) | Herbizide Wirkung im Nachauflauf AS (Avena sativa [5]) | Herbizide Wirkung im Nachauflauf CRS (Chrysanthemum segetum [6]) | Herbizide Wirkung im Nachauflauf STM (Stellaria media [7]) | Herbizide Wirkung im Nachauflauf ECG (Echinochloa crus-galli [8]) | Herbizide Wirkung im Vorauflauf STM (Stellaria media [9]) | Herbizide Wirkung im Vorauflauf ECG (Echinochloa crus-galli [10])
CP(C)(=O)COC(OC(=O)c1cc(Oc2ccc(C(F)(F)F)cc2Cl)ccc1[N+](=O)[O-])C(Cl)(Cl)Cl (stereo not drawn) [compound 46] | 5 (= 80 - 100 % Wirkung bzw. Schaden) | 4 (= 60 - 80 % Wirkung bzw. Schaden) | 5 (= 80 - 100 % Wirkung bzw. Schaden) | 5 (= 80 - 100 % Wirkung bzw. Schaden) | 2 (= 20 - 40 % Wirkung bzw. Schaden) | 5 (= 80 - 100 % Wirkung bzw. Schaden) | 2 (= 20 - 40 % Wirkung bzw. Schaden) | 2 (= 20 - 40 % Wirkung bzw. Schaden) | 1 (= 0 - 20 % Wirkung bzw. Schaden) | 5 (= 80 - 100 % Wirkung bzw. Schaden)
CCOC(OC(=O)c1cc(Oc2ccc(C(F)(F)F)cc2Cl)ccc1[N+](=O)[O-])C(Cl)(Cl)Cl (stereo not drawn) [compound 5, 5-(2-Chlor-4-trifluormethylahenoxy)-2-nitrobenzoesäure-2,2,2-trichlor-1-ethoxyethylester] | 5 (= 80 - 100 % Wirkung bzw. Schaden) | 2 (= 20 - 40 % Wirkung bzw. Schaden) | 5 (= 80 - 100 % Wirkung bzw. Schaden) | 5 (= 80 - 100 % Wirkung bzw. Schaden) | 1 (= 0 - 20 % Wirkung bzw. Schaden) | 4 (= 60 - 80 % Wirkung bzw. Schaden) | 2 (= 20 - 40 % Wirkung bzw. Schaden) | 2 (= 20 - 40 % Wirkung bzw. Schaden) | 2 (= 20 - 40 % Wirkung bzw. Schaden) | 3 (= 40 - 60 % Wirkung bzw. Schaden)
CCOC(=O)C(C)OC(OC(=O)c1cc(Oc2c(Cl)cc(C(F)(F)F)cc2Cl)ccc1[N+](=O)[O-])C(Cl)(Cl)Cl (stereo not drawn) [compound 34] | 5 (= 80 - 100 % Wirkung bzw. Schaden) | 2 (= 20 - 40 % Wirkung bzw. Schaden) | 5 (= 80 - 100 % Wirkung bzw. Schaden) | 5 (= 80 - 100 % Wirkung bzw. Schaden) | 5 (= 80 - 100 % Wirkung bzw. Schaden) | 5 (= 80 - 100 % Wirkung bzw. Schaden) | 5 (= 80 - 100 % Wirkung bzw. Schaden) | 4 (= 60 - 80 % Wirkung bzw. Schaden) | 5 (= 80 - 100 % Wirkung bzw. Schaden) | 1 (= 0 - 20 % Wirkung bzw. Schaden)
O=C(OC(OCC(F)(F)C(F)F)C(Cl)(Cl)Cl)c1cc(Oc2ccc(C(F)(F)F)cc2Cl)ccc1[N+](=O)[O-] (stereo not drawn) [compound 7] | 3 (= 40 - 60 % Wirkung bzw. Schaden) | 3 (= 40 - 60 % Wirkung bzw. Schaden) | 5 (= 80 - 100 % Wirkung bzw. Schaden) | 5 (= 80 - 100 % Wirkung bzw. Schaden) | 2 (= 20 - 40 % Wirkung bzw. Schaden) | 5 (= 80 - 100 % Wirkung bzw. Schaden) | 5 (= 80 - 100 % Wirkung bzw. Schaden) | 3 (= 40 - 60 % Wirkung bzw. Schaden) | 2 (= 20 - 40 % Wirkung bzw. Schaden) | 5 (= 80 - 100 % Wirkung bzw. Schaden)
CCOC(=O)C(C)(C)OC(OC(=O)c1cc(Oc2ccc(C(F)(F)F)cc2Cl)ccc1[N+](=O)[O-])C(Cl)(Cl)Cl (stereo not drawn) [compound 30] | 5 (= 80 - 100 % Wirkung bzw. Schaden) | 5 (= 80 - 100 % Wirkung bzw. Schaden) | 5 (= 80 - 100 % Wirkung bzw. Schaden) | 5 (= 80 - 100 % Wirkung bzw. Schaden) | 5 (= 80 - 100 % Wirkung bzw. Schaden) | 5 (= 80 - 100 % Wirkung bzw. Schaden) | 5 (= 80 - 100 % Wirkung bzw. Schaden) | 4 (= 60 - 80 % Wirkung bzw. Schaden) | 2 (= 20 - 40 % Wirkung bzw. Schaden) | 5 (= 80 - 100 % Wirkung bzw. Schaden)
CCOC(=O)C(C)OC(OC(=O)c1cc(Oc2ccc(C(F)(F)F)cc2Cl)ccc1[N+](=O)[O-])C(Cl)(Cl)Cl (stereo not drawn) [compound 23] | 5 (= 80 - 100 % Wirkung bzw. Schaden) | 5 (= 80 - 100 % Wirkung bzw. Schaden) | 5 (= 80 - 100 % Wirkung bzw. Schaden) | 5 (= 80 - 100 % Wirkung bzw. Schaden) | 1 (= 0 - 20 % Wirkung bzw. Schaden) | 5 (= 80 - 100 % Wirkung bzw. Schaden) | 5 (= 80 - 100 % Wirkung bzw. Schaden) | 2 (= 20 - 40 % Wirkung bzw. Schaden) | 5 (= 80 - 100 % Wirkung bzw. Schaden) | 5 (= 80 - 100 % Wirkung bzw. Schaden)
COC(=O)CC(OC(OC(=O)c1cc(Oc2ccc(C(F)(F)F)cc2Cl)ccc1[N+](=O)[O-])C(Cl)(Cl)Cl)C(=O)OC (stereo not drawn) [compound 31] | 5 (= 80 - 100 % Wirkung bzw. Schaden) | 5 (= 80 - 100 % Wirkung bzw. Schaden) | 5 (= 80 - 100 % Wirkung bzw. Schaden) | 5 (= 80 - 100 % Wirkung bzw. Schaden) | 4 (= 60 - 80 % Wirkung bzw. Schaden) | 5 (= 80 - 100 % Wirkung bzw. Schaden) | 5 (= 80 - 100 % Wirkung bzw. Schaden) | 3 (= 40 - 60 % Wirkung bzw. Schaden) | 2 (= 20 - 40 % Wirkung bzw. Schaden) | 5 (= 80 - 100 % Wirkung bzw. Schaden)
N#CCCSCCOC(OC(=O)c1cc(Oc2ccc(C(F)(F)F)cc2Cl)ccc1[N+](=O)[O-])C(Cl)(Cl)Cl (stereo not drawn) [compound 9] | 4 (= 60 - 80 % Wirkung bzw. Schaden) | 4 (= 60 - 80 % Wirkung bzw. Schaden) | 5 (= 80 - 100 % Wirkung bzw. Schaden) | 5 (= 80 - 100 % Wirkung bzw. Schaden) | 1 (= 0 - 20 % Wirkung bzw. Schaden) | 4 (= 60 - 80 % Wirkung bzw. Schaden) | 0 | 2 (= 20 - 40 % Wirkung bzw. Schaden) | 3 (= 40 - 60 % Wirkung bzw. Schaden) | 4 (= 60 - 80 % Wirkung bzw. Schaden)
CCOC(=O)COC(OC(=O)c1cc(Oc2ccc(C(F)(F)F)cc2Cl)ccc1[N+](=O)[O-])C(Cl)(Cl)Cl (stereo not drawn) [compound 22] | 5 (= 80 - 100 % Wirkung bzw. Schaden) | 4 (= 60 - 80 % Wirkung bzw. Schaden) | 5 (= 80 - 100 % Wirkung bzw. Schaden) | 5 (= 80 - 100 % Wirkung bzw. Schaden) | 5 (= 80 - 100 % Wirkung bzw. Schaden) | 5 (= 80 - 100 % Wirkung bzw. Schaden) | 3 (= 40 - 60 % Wirkung bzw. Schaden) | 5 (= 80 - 100 % Wirkung bzw. Schaden) | 2 (= 20 - 40 % Wirkung bzw. Schaden) | 5 (= 80 - 100 % Wirkung bzw. Schaden)
